Source: US20230021448A1, “COMPOUNDS AND COMPOSITIONS FOR TREATING CONDITIONS ASSOCIATED WITH STING ACTIVITY” (IFM Due, Inc., priority 2019, published 2023)

Target: T1, STING (Homo sapiens, UniProt Q86WV6, G230A/H232R/R293Q/R71H)
T1 construct: host or cells: THP1-Dual KO-IFNAR2 cells
Experiment: STING reporter assay: luciferase reporter activity in THP1-Dual KO-IFNAR2 cells stimulated with 2'3'cGAMP
Assay type: cell-based
Details: 2′3′cGAMP 15 μM final, 24h, read-out: hSTING: EC50
Protocol: STING pathway activation by the compounds described herein was measured using THIP1-Dua1™ cells (KO-IFNAR2).
TTIP1-Dual™ KO-IFNAR2 Cells (obtained from invivogen) were maintained in RPMI, 10% FCS, 5 ml P/S, 2 mM L-glut, 10 mM Hepes, and 1 mM sodium pyruvate. Compounds were spotted in empty 384 well tissue culture plates (Greiner 781182) by Echo for a final concentration of 0.0017-100 μM. Cells were plated into the TC plates at 40 μL per well, 2×10E6 cells/mL. For activation with STING ligand, 2′3′cGAMP (MW 718.38, obtained from Invivogen), was prepared in Optimem media.
The following solutions were prepared for each 1×384 plate: • Solution A: 2 mL Optimem with one of the following stimuli: • […] • Solution B: 2 mL Optimem with 60 μL Lipofectamine 2000->Incubate 5 min at RT
2 mL of solution A and 2 ml Solution B was mixed and incubated for 20 min at room temperature (RT). 20 uL of transfection solution (A+B) was added on top of the plated cells, with a final 2′3′cGAMP concentration of 15 μM. The plates were then centrifuged immediately at 340 g for 1 minute, after which they were incubated at 37° C., 5% C02, >98% humidity for 24h. Luciferase reporter activity was then measured. EC50 values were calculated by using standard methods known in the art.
Luciferase reporter assay: 10 μL of supernatant from the assay was transferred to white 384-plate with flat bottom and squared wells. One pouch of QUANTI-Luc™ Plus was dissolved in 25 mL of water. 100 μL of QLC Stabilizer per 25 mL of QUANTI-Luc™ Plus solution was added. 50 μL of QUANTI-Luc™ Plus/QLC solution per well was then added. Luminescence was measured on a Platereader (e.g., Spectramax I3X (Molecular Devices GF3637001)).
Luciferase reporter activity was then measured. EC50 values were calculated by using standard methods known in the art.

T1 sequence (Q86WV6 whole entry R71H/G230A/H232R/R293Q): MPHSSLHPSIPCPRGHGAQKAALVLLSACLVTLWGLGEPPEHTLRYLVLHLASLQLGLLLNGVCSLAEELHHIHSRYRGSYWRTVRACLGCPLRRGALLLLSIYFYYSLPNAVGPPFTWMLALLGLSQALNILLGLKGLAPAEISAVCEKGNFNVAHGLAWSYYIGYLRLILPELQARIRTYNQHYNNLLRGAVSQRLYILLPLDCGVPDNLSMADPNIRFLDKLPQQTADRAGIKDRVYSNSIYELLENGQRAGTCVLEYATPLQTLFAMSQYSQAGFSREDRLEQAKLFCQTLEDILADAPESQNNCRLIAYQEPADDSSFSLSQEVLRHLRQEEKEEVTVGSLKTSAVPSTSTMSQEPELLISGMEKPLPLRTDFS

| EC50 | SMILES |
| --- | --- |
| 0.04 to 0.2 µM | O=C(Nc1c[nH]c2cc(F)c(F)cc12)C(=O)N[C@H]1CCN(c2ccccc2)C1 [Compound 127] |
| 1 to 5 µM | O=C(Nc1c[nH]c2cc(F)c(F)cc12)C(=O)N[C@@H]1CCN(c2ccccc2)C1 [Compound 128] |
| 0.2 to 1 µM | CC(C)n1cc(-c2ccc3[nH]cc(NC(=O)C(=O)NCc4ccc(C(F)(F)F)c(Cl)c4)c3c2)cn1 [Compound 129] |
| 0.2 to 1 µM | Cc1ccc(Cl)cc1NC(=O)C(=O)Nc1c[nH]c2cc(F)c(F)cc12 [Compound 130, N1-(5-chloro-2-methylphenyl)-N2-(5,6-difluoro-1H-indol-3-yl)oxalamide] |
| 0.2 to 1 µM | O=C(NCc1ccc(F)c(OC(F)(F)F)c1)C(=O)Nc1c[nH]c2cc(F)c(F)cc12 [Compound 131, N1-(5,6-difluoro-1H-indol-3-yl)-N2-(4-fluoro-3-(trifluoromethoxy)benzyl) oxalamide] |
| 0.2 to 1 µM | Cc1c(CNC(=O)C(=O)Nc2c[nH]c3cc(F)c(F)cc23)cccc1C(F)(F)F [Compound 132, N1-(5,6-difluoro-1H-indol-3-yl)-N2-(2-methyl-3-(trifluoromethyl)benzyl)oxalamide] |
| 0.04 to 0.2 µM | O=C(NCc1ccc(C(F)(F)F)c(Cl)c1)C(=O)Nc1c[nH]c2ccc(Br)cc12 [Compound 133] |
| 0.2 to 1 µM | Cc1ccc(CNC(=O)C(=O)Nc2c[nH]c3ccc(-c4cccc(CO)c4)cc23)cc1C(F)(F)F [Compound 134] |
| 0.2 to 1 µM | O=C(NC[C@@H](C(F)F)C1CCCCC1)C(=O)Nc1c[nH]c2cc(F)c(F)cc12 [Compound 135] |
| 0.04 to 0.2 µM | O=C(NC[C@H](C(F)F)C1CCCCC1)C(=O)Nc1c[nH]c2cc(F)c(F)cc12 [Compound 136] |
| 0.2 to 1 µM | CC(C)(NC(=O)C(=O)Nc1c[nH]c2cc(F)c(F)cc12)c1ccc(C(F)(F)F)c(Cl)c1 [Compound 137] |
| 0.2 to 1 µM | O=C(NCCc1ccccc1C(F)(F)F)C(=O)Nc1c[nH]c2cc(F)c(F)cc12 [Compound 138, N1-(5,6-difluoro-1H-indol-3-yl)-N2-(2-(trifluoromethyl)phenethyl) oxalamide] |
| 0.2 to 1 µM | O=C(NCC(c1ccccc1)C(F)F)C(=O)Nc1c[nH]c2cc(F)c(F)cc12 (stereo not shown) [Compound 139] |
| 1 to 5 µM | O=C(NCC1(c2cccc(Cl)c2)CCOCC1)C(=O)Nc1c[nH]c2cc(F)c(F)cc12 [Compound 140] |
| 5 to 100 µM | CN(Cc1ccc(C(F)(F)F)c(Cl)c1)C(=O)C(=O)Nc1c[nH]c2cc(F)c(F)cc12 [Compound 141] |
| 0.2 to 1 µM | O=C(NCC(C(F)F)C1CCCCC1)C(=O)Nc1c[nH]c2cc(F)c(F)cc12 (stereo not shown) [Compound 142] |
| 0.2 to 1 µM | O=C(NCCc1ccc(C(F)(F)F)c(Cl)c1)C(=O)Nc1c[nH]c2cc(F)c(F)cc12 [Compound 143] |
| 0.2 to 1 µM | O=C(NCCc1ccc(C(F)(F)F)cc1)C(=O)Nc1c[nH]c2cc(F)c(F)cc12 [Compound 144, N1-(5,6-difluoro-1H-indol-3-yl)-N2-(4-(trifluoromethyl)phenethyl) oxalamide] |
| 0.2 to 1 µM | O=C(NCC1CCc2ccccc2O1)C(=O)Nc1c[nH]c2cc(F)c(F)cc12 (stereo not shown) [Compound 145, N-(chroman-2-ylmethyl)-N2-(5,6-difluoro-1H-indol-3-yl)oxalamide] |
| 0.2 to 1 µM | O=C(NCC1(c2ccccc2)CC1)C(=O)Nc1c[nH]c2cc(F)c(F)cc12 [Compound 146, N1-(5,6-difluoro-1H-indol-3-yl)-N2-((1-phenylcyclopropyl)methyl)oxalamide] |
| 0.2 to 1 µM | Cc1ccc(OCCNC(=O)C(=O)Nc2c[nH]c3cc(F)c(F)cc23)cc1C [Compound 147, N1-(5,6-difluoro-1H-indol-3-yl)-N2-(2-(3,4-dimethylphenoxy)ethyl)oxalamide] |
| 0.04 to 0.2 µM | O=C(NCc1cccc2c1OC(F)(F)O2)C(=O)Nc1c[nH]c2cc(F)c(F)cc12 [Compound 148, N1-(5,6-difluoro-1H-indol-3-yl)-N2-((2,2-difluorobenzo[d] [1,3]dioxol-4-yl)methyl) oxalamide] |
